Measured values published in ChEMBL document CHEMBL4765470 (J Med Chem, 2021).
Starred links: 1 amine or outer side, 2 acyl side, 3 side chain; linkers in the order of their positions; H or OH if unused. Non-standard residues stand in square brackets, D forms with d. Residues, ends and D or L forms follow the SMILES beside them. *: point of attachment. Bpa = N[C@@H](Cc1ccc(C(=O)c2ccccc2)cc1)C(=O)O; Ala(thiazol-5-yl) = N[C@@H](Cc1cncs1)C(=O)O; Bip = N[C@@H](Cc1ccc(-c2ccccc2)cc1)C(=O)O; GABA(4S-Me) = C[C@@H](CCC(=O)[*:2])N[*:1]; X1 = O=C([C@]1(Cc2ccccc2)CCCN1[*:1])[*:2]; 1Nal = N[C@@H](Cc1cccc2ccccc12)C(=O)O; 2Nal = N[C@@H](Cc1ccc2ccccc2c1)C(=O)O; Tic = O=C(O)[C@@H]1Cc2ccccc2CN1; Cha = N[C@@H](CC1CCCCC1)C(=O)O; Pip = O=C(O)[C@@H]1CCCCN1; Nle = CCCC[C@H](N)C(=O)O; Orn = NCCC[C@H](N)C(=O)O; Ac5c = NC1(C(=O)O)CCCC1; Dab = NCC[C@H](N)C(=O)O; Ac3c = NC1(C(=O)O)CC1; Bn = c1ccc(C*)cc1

Target: T1, Apelin receptor (Homo sapiens, UniProt P35414)
T1 sequence (P35414 whole entry): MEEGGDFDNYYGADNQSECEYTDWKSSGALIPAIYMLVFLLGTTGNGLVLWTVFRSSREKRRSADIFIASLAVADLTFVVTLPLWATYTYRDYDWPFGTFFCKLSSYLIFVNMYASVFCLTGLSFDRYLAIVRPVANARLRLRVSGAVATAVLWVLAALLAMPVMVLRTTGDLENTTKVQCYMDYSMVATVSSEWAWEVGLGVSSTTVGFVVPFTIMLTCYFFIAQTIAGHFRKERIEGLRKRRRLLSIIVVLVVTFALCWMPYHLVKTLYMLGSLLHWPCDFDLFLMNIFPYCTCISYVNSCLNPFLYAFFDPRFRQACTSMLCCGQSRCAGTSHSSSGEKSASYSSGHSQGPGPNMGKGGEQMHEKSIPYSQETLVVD
Experiment: Displacement of [125I] [NIe75, Tyr77]Pyr-apelin-13 from YFP-tagged human APJ receptor expressed in HEK293 cell membranes incubated for 1 hr by gamma counting based Cheng-Prusoff equation analysis

Row | Compound | Ki
1 | CCCC[C@H](N)C(=O)N1CCC[C@H]1C(=O)N[C@@H](CC(C)C)C(=O)N[C@@H](Cc1cnc[nH]1)C(=O)N[C@@H](CO)C(=O)N[C@@H](CCCNC(=N)N)C(=O)N[C@@H](CCC)C(=O)N1CCC[C@H]1C(=O)N[C@@H](Cc1ccccc1)C(=O)N1CCC[C@H]1C(=O)O | 0.069 µM
2 | CCCC[C@H](N)C(=O)N1CCC[C@H]1C(=O)N[C@@H](CC(C)C)C(=O)N[C@@H](Cc1cnc[nH]1)C(=O)N[C@@H](CO)C(=O)N[C@@H](CCCNC(=N)N)C(=O)N[C@H](C(=O)N1CCC[C@H]1C(=O)N[C@@H](Cc1ccc(C(=O)c2ccccc2)cc1)C(=O)N1CCC[C@H]1C(=O)O)C(C)C (H-[Nle]PLHSRVP[Bpa]P-OH) | > 10 µM
3 | CCCC[C@H](N)C(=O)N1CCC[C@H]1C(=O)N[C@@H](CC(C)C)C(=O)N[C@@H](CC1CCCCC1)C(=O)N[C@@H](CO)C(=O)N[C@@H](CCCNC(=N)N)C(=O)N[C@H](C(=O)N1CCC[C@H]1C(=O)N[C@@H](Cc1ccccc1)C(=O)N1CCC[C@H]1C(=O)O)C(C)C (H-[Nle]PL[Cha]SRVPFP-OH) | 0.474 µM
4 | CCCC[C@H](N)C(=O)N1CCC[C@H]1C(=O)N[C@@H](CC(C)C)C(=O)N[C@@H](C)C(=O)N[C@@H](CO)C(=O)N[C@@H](CCCNC(=N)N)C(=O)N[C@H](C(=O)N1CCC[C@H]1C(=O)N[C@@H](Cc1ccccc1)C(=O)N1CCC[C@H]1C(=O)O)C(C)C (H-[Nle]PLASRVPFP-OH) | 1.46 µM
5 | CCCC[C@H](N)C(=O)N1CCC[C@H]1C(=O)N[C@@H](CC(C)C)C(=O)N[C@@H](Cc1cnc[nH]1)C(=O)N[C@@H](CO)C(=O)N[C@@H](CCCNC(=N)N)C(=O)N[C@H](C(=O)N1CCC[C@H]1C(=O)N[C@@H](Cc1ccc(-c2ccccc2)cc1)C(=O)N1CCC[C@H]1C(=O)O)C(C)C (H-[Nle]PLHSRVP[Bip]P-OH) | > 10 µM
6 | CCCC[C@H](N)C(=O)N1CCC[C@H]1C(=O)N[C@H](C(=O)N[C@@H](Cc1cnc[nH]1)C(=O)N[C@@H](CO)C(=O)N[C@@H](CCCNC(=N)N)C(=O)N[C@H](C(=O)N1CCC[C@H]1C(=O)N[C@@H](Cc1ccccc1)C(=O)N1CCC[C@H]1C(=O)O)C(C)C)C(C)C (H-[Nle]PVHSRVPFP-OH) | 0.054 µM
7 | CCCC[C@H](N)C(=O)N1CCC[C@H]1C(=O)N[C@@H](CC(C)C)C(=O)N[C@@H](Cc1cnc[nH]1)C(=O)N[C@@H](CO)C(=O)N[C@@H](CCCNC(=N)N)C(=O)N[C@H](C(=O)N1CCC[C@H]1C(=O)N[C@@H](Cc1ccccc1)C(=O)N1Cc2ccccc2C[C@H]1C(=O)O)C(C)C (H-[Nle]PLHSRVPF[Tic]-OH) | 0.029 µM
8 | CCCC[C@H](N)C(=O)N1CCC[C@H]1C(=O)N[C@@H](CC(C)C)C(=O)N[C@@H](Cc1cncs1)C(=O)N[C@@H](CO)C(=O)N[C@@H](CCCNC(=N)N)C(=O)N[C@H](C(=O)N1CCC[C@H]1C(=O)N[C@@H](Cc1ccccc1)C(=O)N1CCC[C@H]1C(=O)O)C(C)C (H-[Nle]PL[Ala(thiazol-5-yl)]SRVPFP-OH) | 0.071 µM
9 | CCCC[C@H](N)C(=O)N1CCC[C@H]1C(=O)N[C@@H](CC(C)C)C(=O)N[C@@H](Cc1cnc[nH]1)C(=O)N[C@@H](CO)C(=O)N[C@@H](CCCNC(=N)N)C(=O)N[C@H](C(=O)NC1(C(=O)N[C@@H](Cc2ccccc2)C(=O)O)CC1)C(C)C (H-[Nle]PLHSRV[Ac3c]F-OH) | > 10 µM
10 | CCCC[C@H](N)C(=O)N1CCC[C@H]1C(=O)N[C@@H](CC(C)C)C(=O)N[C@@H](Cc1cnc[nH]1)C(=O)N[C@@H](CO)C(=O)N[C@@H](CCCNC(=N)N)C(=O)N[C@H](C(=O)N1CCC[C@H]1C(=O)N[C@@H](Cc1cccc2ccccc12)C(=O)O)C(C)C (H-[Nle]PLHSRVP[1Nal]-OH) | 0.094 µM
11 | CCCC[C@H](N)C(=O)N1CCC[C@H]1C(=O)N[C@@H](CC(C)C)C(=O)N[C@@H](Cc1cnc[nH]1)C(=O)N[C@@H](CO)C(=O)N[C@@H](CCCNC(=N)N)C(=O)N[C@H](C(=O)N1CCC[C@H]1C(=O)N[C@@H](Cc1ccc(C(=O)c2ccccc2)cc1)C(=O)O)C(C)C (H-[Nle]PLHSRVP[Bpa]-OH) | 0.048 µM
12 | CCCC[C@H](N)C(=O)N1CCC[C@H]1C(=O)N[C@@H](CC(C)C)C(=O)N[C@@H](Cc1ccc2ccccc2c1)C(=O)N[C@@H](CO)C(=O)N[C@@H](CCCNC(=N)N)C(=O)N[C@H](C(=O)N1CCC[C@H]1C(=O)N[C@@H](Cc1ccccc1)C(=O)N1CCC[C@H]1C(=O)O)C(C)C (H-[Nle]PL[2Nal]SRVPFP-OH) | > 10 µM
13 | CCCC[C@H](N)C(=O)N1CCC[C@H]1C(=O)N[C@@H](CC(C)C)C(=O)N[C@@H](Cc1cnc[nH]1)C(=O)N[C@@H](CO)C(=O)N[C@@H](CCCNC(=N)N)C(=O)N[C@@H](CC(C)C)C(=O)N1CCC[C@H]1C(=O)N[C@@H](Cc1ccccc1)C(=O)N1CCC[C@H]1C(=O)O (H-[Nle]PLHSRLPFP-OH) | 0.045 µM
14 | CCCC[C@H](N)C(=O)N1CCC[C@H]1C(=O)N[C@@H](CC(C)C)C(=O)N[C@@H](Cc1cnc[nH]1)C(=O)N[C@@H](CO)C(=O)N[C@@H](CCCNC(=N)N)C(=O)N[C@@H](CC1CCCCC1)C(=O)N1CCC[C@H]1C(=O)N[C@@H](Cc1ccccc1)C(=O)N1CCC[C@H]1C(=O)O (H-[Nle]PLHSR[Cha]PFP-OH) | 0.152 µM
15 | CCCC[C@H](N)C(=O)N1CCC[C@H]1C(=O)N[C@@H](CC(C)C)C(=O)N[C@@H](Cc1ccccc1)C(=O)N[C@@H](CO)C(=O)N[C@@H](CCCNC(=N)N)C(=O)N[C@H](C(=O)N1CCC[C@H]1C(=O)N[C@@H](Cc1ccccc1)C(=O)N1CCC[C@H]1C(=O)O)C(C)C (H-[Nle]PLFSRVPFP-OH) | > 10 µM
16 | CCCC[C@H](N)C(=O)N1CCC[C@H]1C(=O)N[C@@H](CC(C)C)C(=O)N[C@@H](Cc1cnc[nH]1)C(=O)N[C@@H](CO)C(=O)N[C@@H](CCCNC(=N)N)C(=O)N[C@H](C(=O)N1CCC[C@H]1C(=O)N[C@@H](Cc1ccc(OCc2ccccc2)cc1)C(=O)N1CCC[C@H]1C(=O)O)C(C)C (H-[Nle]PLHSRVPY(Bn)P-OH) | > 10 µM
17 | CCCC[C@H](N)C(=O)N1CCC[C@H]1C(=O)N[C@@H](CC(C)C)C(=O)N[C@@H](Cc1cnc[nH]1)C(=O)N[C@@H](CO)C(=O)N[C@@H](CCCNC(=N)N)C(=O)N[C@H](C(=O)N1CCC[C@H]1C(=O)N[C@@H](Cc1ccccc1)C(=O)O)C(C)C (H-[Nle]PLHSRVPF-OH) | 0.128 µM
18 | CCCC[C@H](N)C(=O)N1CCC[C@H]1C(=O)N[C@@H](CC(C)C)C(=O)N[C@@H](Cc1cnc[nH]1)C(=O)N[C@@H](CO)C(=O)N[C@@H](CCCNC(=N)N)C(=O)NC1(C(=O)N2CCC[C@H]2C(=O)N[C@@H](Cc2ccccc2)C(=O)N2CCC[C@H]2C(=O)O)CCCC1 (H-[Nle]PLHSR[Ac5c]PFP-OH) | > 10 µM

Results, then the compound that gave them:

Row | Ki | Compound
19 | > 10 µM | H-HSRVPFP-OH
20 | > 10 µM | CCCC[C@H](N)C(=O)N1CCC[C@H]1C(=O)N[C@@H](CC(C)C)C(=O)N[C@@H](CCCN)C(=O)N[C@@H](CO)C(=O)N[C@@H](CCCNC(=N)N)C(=O)N[C@H](C(=O)N1CCC[C@H]1C(=O)N[C@@H](Cc1ccccc1)C(=O)N1CCC[C@H]1C(=O)O)C(C)C (H-[Nle]PL[Orn]SRVPFP-OH)
21 | 0.038 µM | CCCC[C@H](N)C(=O)N1CCC[C@H]1C(=O)N[C@@H](CC(C)C)C(=O)N[C@@H](Cc1cnc[nH]1)C(=O)N[C@@H](CO)C(=O)N[C@@H](CCCNC(=N)N)C(=O)N[C@H](C(=O)N1CCC[C@H]1C(=O)N[C@@H](Cc1ccccc1)C(=O)N1C[C@H](OCc2ccccc2)C[C@H]1C(=O)O)C(C)C
22 | 0.278 µM | CCCC[C@H](N)C(=O)N1CCC[C@H]1C(=O)NC1(C(=O)N[C@@H](Cc2cnc[nH]2)C(=O)N[C@@H](CO)C(=O)N[C@@H](CCCNC(=N)N)C(=O)N[C@H](C(=O)N2CCC[C@H]2C(=O)N[C@@H](Cc2ccccc2)C(=O)N2CCC[C@H]2C(=O)O)C(C)C)CC1 (H-[Nle]P[Ac3c]HSRVPFP-OH)
23 | 0.186 µM | CCCC[C@H](N)C(=O)N1CCC[C@H]1C(=O)N[C@@H](CC(C)C)C(=O)N[C@@H](Cc1cnc[nH]1)C(=O)N[C@@H](CO)C(=O)N[C@@H](CCCNC(=N)N)C(=O)N[C@H](C(=O)N1CCCC[C@H]1C(=O)N[C@@H](Cc1ccccc1)C(=O)O)C(C)C (H-[Nle]PLHSRV[Pip]F-OH)
24 | 0.057 µM | CCCC[C@H](N)C(=O)N1CCC[C@H]1C(=O)N[C@@H](CC(C)C)C(=O)N[C@@H](Cc1cnc[nH]1)C(=O)N[C@@H](CO)C(=O)N[C@@H](CCCNC(=N)N)C(=O)N[C@H](C(=O)N1CCC[C@H]1C(=O)N[C@@H](Cc1ccccc1)C(=O)N[C@@H](C)C(=O)O)C(C)C (H-[Nle]PLHSRVPFA-OH)
25 | > 10 µM | CCCC[C@H](N)C(=O)N1CCC[C@H]1C(=O)N[C@@H](CC(C)C)C(=O)N[C@@H](Cc1cnc[nH]1)C(=O)N[C@@H](CO)C(=O)N[C@@H](CCCNC(=N)N)C(=O)N[C@H](C(=O)N1CCC[C@H]1C(=O)N[C@@H](C)CCC(=O)O)C(C)C (H-[Nle]PLHSRVP-{GABA(4S-Me)})
26 | > 10 µM | CCCC[C@H](N)C(=O)N1CCC[C@H]1C(=O)N[C@@H](CC(C)C)C(=O)N[C@@H](CCN)C(=O)N[C@@H](CO)C(=O)N[C@@H](CCCNC(=N)N)C(=O)N[C@H](C(=O)N1CCC[C@H]1C(=O)N[C@@H](Cc1ccccc1)C(=O)N1CCC[C@H]1C(=O)O)C(C)C (H-[Nle]PL[Dab]SRVPFP-OH)
27 | 0.916 µM | CCCC[C@H](N)C(=O)N1CCC[C@H]1C(=O)N[C@@H](CC(C)C)C(=O)N[C@@H](Cc1cnc[nH]1)C(=O)N[C@@H](CO)C(=O)N[C@@H](CCCNC(=N)N)C(=O)N[C@H](C(=O)N1CCC[C@H]1C(=O)N[C@@H](Cc1ccccc1)C(=O)N1CCC[C@@]1(Cc1ccccc1)C(=O)O)C(C)C (H-[Nle]PLHSRVPF[X1]-OH)
28 | 0.419 µM | CCCC[C@H](N)C(=O)N1CCC[C@H]1C(=O)N[C@@H](CC(C)C)C(=O)N[C@@H](Cc1cnc[nH]1)C(=O)N[C@@H](CO)C(=O)N[C@@H](CCCNC(=N)N)C(=O)N[C@@H](C)C(=O)N1CCC[C@H]1C(=O)N[C@@H](Cc1ccccc1)C(=O)N1CCC[C@H]1C(=O)O (H-[Nle]PLHSRAPFP-OH)
